This is an account of results in PMC10761660, “Preclinical evaluation of an ^18F-labeled N^ε-acryloyllysine piperazide for covalent targeting of transglutaminase 2” (EJNMMI Radiopharmacy and Chemistry, 2024).

Read-outs that look alike come from different tables or passages of the source.

Series [1] can be described thus: Liver microsome assay. The format is in vitro ADME, murine. The following applies: for CLint scaled: read-out: predicted intrinsic clearance (pred. CLint); for half-life: t1/2 approach (at 3-4 µM), 1 mg/mL MLM, 2 mM NADPH. As to the method: Microsome experiments with [^18F]7b in the presence of NADPH were performed according to the procedure recently described by us with slight modifications (Lemm et al. [2022]). […] [^18F]7b dissolved in 0.5% ethanol/PBS (100 µL; 0.2% ethanol final, e.g. 108 MBq/mL or 4.1 µM final) was mixed with PBS (112.5 µL) and murine liver microsomes (MLM, 12.5 µL of 20 mg/mL stock; 1 mg/mL final; Gibco™ Cat. No. MSMCPL, Lot. No. MS053-A) in a 1.5 mL Eppendorf tube and the mixture was warmed for 5 min at 37 °C. Subsequently, NADPH (25 µL of freshly prepared 20 mM solution in PBS, 2 mM final) was added and the mixture was incubated at 37 °C. As a control incubation, the NADPH solution was replaced by PBS. At distinct time points (5, 10, 15, 30, and 60 min), an aliquot (40 µL) was withdrawn and added to ice-cold CH3CN (160 µL). The mixture was vortexed for 30 s, stored on ice for 4 min and centrifuged (5 min at 16,100 × g). The resulting supernatant was used for radio-HPLC and radio-TLC analyses. For radio-HPLC, the Shimadzu Nexera X2 UHPLC system described above including the conditions for analysis was used. Radio-TLC was carried out on reversed-phase TLC plates (ALUGRAM RP-18W/UV254 from Macherey–Nagel, Düren, Germany) with a mobile phase of 40% CH3CN in water containing 0.1% trifluoroacetic acid. Visualization of radioactive spots and subsequent analysis was conducted as described above.
Testosterone (40 µM final) was used as positive control for the activity of the MLM and was separately treated and analyzed after incubation times of 5, 10, 15, 30, and 60 min as described above (0% ethanol final; HPLC gradient profile: 45% eluent B for 10 min followed by washing of the column with 45% to 95% eluent B in 1 min, 95% eluent B for 5 min, 95% to 45% eluent B in 1 min, 45% eluent B for 8 min; total time of 25 min).
For that, solutions of [^18F]7b in 0.5% ethanol/PBS (10 µL; 0.1% ethanol final, 17 MBq/mL or 1.14 µM final) were mixed with the respective tenfold concentrated solutions of 7b dissolved in 10% DMSO/PBS (5 µL, 1% DMSO final and 5/10/20/40/80 µM of 7b final), PBS (27.5 µL) and murine liver microsomes (2.5 µL of 20 mg/mL stock) in a 1.5 mL Eppendorf tube and the mixture was warmed for 5 min at 37 °C. Subsequently, NADPH (5 µL of freshly prepared 20 mM solution in PBS, 2 mM final) was added and the mixture was incubated at 37 °C. At distinct time points (5, 10, 15, 20, and 30 min), an aliquot (5 µL) was withdrawn and added to ice-cold CH3CN (40 µL). The subsequent steps were performed as described above including analysis by radio-TLC.
For the t1/2 approach at n.c.a. level, the obtained fractions of intact [^18F]7b (by radio-HPLC or radio-TLC analysis) were plotted against the time. Nonlinear regression was performed by one-phase decay (equation 1) as implemented in GraphPad Prism (GraphPad Prism 9.5.1.733), which provided the t1/2 values. The fraction at X = 0 min, Y0, was constrained to 1.0.1 Y0=Y0-Plateau×e^-k×X+Plateau
Subsequently, the intrinsic clearance, CLint (mL*min^−1*kg^−1), was calculated using equation 2 (Obach et al. [1997]; Schneider et al. [2019])2 CLint=ln2/t1/2min×fuinc×1/MLM(mg/mL)×microsomalprotein/liverweightmg/g×liverweight/bodyweightg/kg with the scaling factors of 60.1 mg/g (microsomal protein/liver weight for rats as no value for mice could be found) (Carlile et al. [1997]) and 87.5 g/kg (liver weight/body weight for mice) (Davies and Morris [1993]). The concentration of the MLMs was 1 mg/mL.
For the Vmax/Km approach, the obtained fractions of intact [^18F]7b (by radio-TLC analysis) were plotted against the time (fraction plot). The concentration plot was obtained by transformation of the fractions into concentrations of 7b by taking the experimentally determined molar activity of [^18F]7b into account (i.e. final concentration of 1.14, 6.16, 11.14, 21.14, 41.14, and 81.14 µM for 7b in the performed experiments). Both plots were analyzed by nonlinear regression according to one-phase decay (equation 1). […]

On the set-up of series [2]: method as in Wodtke et al. [2021]. The following applies: ref Wodtke et al. [2021]; cited from earlier work.

Consider `C=CC(=O)NCCCCC(NC(=O)Cc1ccccc1)C(=O)N1CCN(c2cccc([18F])n2)CC1` (stereo not drawn) [[^18F]7b], for which the “fraction of intact [^18F]7b” value in series [1] (MLM, after 30 min in the absence of NADPH, radio-TLC) amounted to 0.984. Moreover, the Vmax was 0.37 µM/min in series [1] (Michaelis–Menten analysis, degradation by MLM (1 mg/mL)) and 0.37 µM*mL*min^-1*mg^-1 in series [1] (Vmax/Km approach, substrate depletion, radio-TLC). Further, the CLint scaled in series [1] (mouse, liver microsomes, Vmax/Km approach, mice) was 1610 mL/min/kg; in series [1] (mouse, liver microsomes, t1/2 approach), 772 mL/min/kg. The half-life (in general, how long it takes for the measured level to halve) is 5.7 min in series [1] (mouse, liver microsomes, radio-HPLC) and 7.2 min in series [1] (mouse, liver microsomes, radio-TLC). The Michaelis-Menten constant (Km) (usually the concentration of substrate that gives half-maximal velocity) in series [1] (mouse, liver microsomes, Vmax/Km approach, degradation by MLM, radio-TLC) was determined as 1.5 µM. The logD7.4 in series [2] is given as 2.1.
